Experimental data published in patent publication US6355799B1, “Substituted benzene compounds, process for their preparation, and herbicidal and defoliant compositions containing them” (ISK Americas Incorporated, priority 1997, dated 2002).

Columns and labels:
Type in all cases: in vivo
[1] = test system: large crabgrass (Digitaria sanguinalis, DIGSA); assay: Post-emerge test, greenhouse herbicide activity screening; conditions: post-emerge, phytotoxicity rating 0-100 at 14 days after application
In short: (§1)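 Each test used a mechanized track sprayer delivering 187 l/ha of acetone solution at 15–1000 g ai/ha. Post-emerge foliage at 2–3 leaves was treated with added 0.25% v/v non-ionic surfactant and bottom-watered only. Injury was assessed on day 14, where 100 means total kill.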

[2] = test system: lambsquarters (Chenopodium album, CHEAL); assay: as above; conditions: post-emerge, phytotoxicity rating 0-100 at 14 days after application
In short: as §1

[3] = test system: redroot pigweed (Amaranthus retroflexus, AMARE); assay: as above; conditions: post-emerge, phytotoxicity rating 0-100 at 14 days after application
In short: as §1

[4] = test system: velvetleaf (Abutilon theophrasti, ABUTH); assay: as above; conditions: post-emerge, phytotoxicity rating 0-100 at 14 days after application
In short: as §1

[5] = test system: barnyardgrass (Echinochloa crus-galli, ECHCG); assay: as above; conditions: post-emerge, phytotoxicity rating 0-100 at 14 days after application
In short: as §1

[6] = test system: green foxtail (Setaria viridis, SETVI); assay: as above; conditions: post-emerge, phytotoxicity rating 0-100 at 14 days after application
In short: as §1

[7] = test system: ivyleaf morningglory (Ipomoea hederacea, IPOHE); assay: as above; conditions: post-emerge, phytotoxicity rating 0-100 at 14 days after application
In short: as §1

[8] = test system: sicklepod (Cassia obtusifolia, CASOB); assay: as above; conditions: post-emerge, phytotoxicity rating 0-100 at 14 days after application
In short: as §1

[9] = test system: field corn (Zea mays L., var. Dekalb 535, CORN); assay: Pre-emerge test, crop safety; conditions: rating scale 0-100, 14 days after application
In short: (§2)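 Herbicidal damage is scored 0 (none) to 100 (complete plant death) two weeks after a simulated field spray. Rates span 15–1000 g ai/ha, delivered in acetone at 187 l/ha. For post-emergence treatments, plants have 2–3 leaves and the spray carries 0.25% v/v non-ionic surfactant.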

[10] = test system: upland rice (Oryza sp., var. Tebonnet, RICE); assay: Pre-emerge test, crop safety; conditions: rating scale 0-100, 14 days after application
In short: as §2

[11] = test system: redroot pigweed (Amaranthus retroflexus, AMARE); assay: Pre-emerge test, greenhouse herbicide activity screening; conditions: rating scale 0-100, 14 days after application
In short: as §2

[12] = test system: field corn (Zea mays L., var. Dekalb 535, CORN); assay: Post-emerge test, crop safety; conditions: post-emerge, crop damage rating 0-100 at 14 days after application
In short: (§3)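 Sandy loam pots; pre-emerge: sown 1 d pre-spray, surface-watered after, then bottom-watered. Post-emerge: sown 8–21 d before, 2–3 leaf stage, + 0.25% v/v NIS, bottom-watered. Acetone, 187 l/ha track spray, 15–1000 g ai/ha. 0–100 injury score, day 14.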

[13] = test system: upland rice (Oryza sp., var. Tebonnet, RICE); assay: Post-emerge test, crop safety; conditions: post-emerge, crop damage rating 0-100 at 14 days after application
In short: as §3

[14] = test system: large crabgrass (Digitaria sanguinalis, DIGSA); assay: Pre-emerge test, greenhouse herbicide activity screening; conditions: rating scale 0-100, 14 days after application
In short: as §3

[15] = test system: lambsquarters (Chenopodium album, CHEAL); assay: as above; conditions: rating scale 0-100, 14 days after application
In short: as §3

[16] = test system: velvetleaf (Abutilon theophrasti, ABUTH); assay: as above; conditions: rating scale 0-100, 14 days after application
In short: as §3

[17] = test system: barnyardgrass (Echinochloa crus-galli, ECHCG); assay: as above; conditions: rating scale 0-100, 14 days after application
In short: as §3

[18] = test system: green foxtail (Setaria viridis, SETVI); assay: as above; conditions: rating scale 0-100, 14 days after application
In short: as §3

[19] = test system: ivyleaf morningglory (Ipomoea hederacea, IPOHE); assay: as above; conditions: rating scale 0-100, 14 days after application
In short: as §3

[20] = test system: sicklepod (Cassia obtusifolia, CASOB); assay: as above; conditions: rating scale 0-100, 14 days after application
In short: as §3

[21] = test system: johnsongrass (Sorghum halepense, SORHA); assay: as above; conditions: rating scale 0-100, 14 days after application
In short: as §3

COc1c(Cl)cc(F)c(N2C(=O)c3ccccc3C2=O)c1NC(=O)c1ccc(F)cc1F [13-4]
Post-emerge Herbicidal Activity DIGSA ([1]; 63 g ai/ha): 0 | Post-emerge Herbicidal Activity DIGSA ([1]; 250 g ai/ha): 10 | Post-emerge Herbicidal Activity CHEAL ([2]; 63 g ai/ha): 95 | Post-emerge Herbicidal Activity CHEAL ([2]; 250 g ai/ha): 100 | Post-emerge Herbicidal Activity AMARE ([3]; 63 g ai/ha): 100 | Post-emerge Herbicidal Activity AMARE ([3]; 250 g ai/ha): 95 | Post-emerge Herbicidal Activity ABUTH ([4]; 63 g ai/ha): 100 | Post-emerge Herbicidal Activity ABUTH ([4]; 250 g ai/ha): 100 | Post-emerge Herbicidal Activity ECHCG ([5]; 63 g ai/ha): 10 | Post-emerge Herbicidal Activity ECHCG ([5]; 250 g ai/ha): 30 | Post-emerge Herbicidal Activity SETVI ([6]; 63 g ai/ha): 20 | Post-emerge Herbicidal Activity SETVI ([6]; 250 g ai/ha): 40 | Post-emerge Herbicidal Activity IPOHE ([7]; 63 g ai/ha): 85 | Post-emerge Herbicidal Activity IPOHE ([7]; 250 g ai/ha): 85 | Post-emerge Herbicidal Activity CASOB ([8]; 63 g ai/ha): 95 | Post-emerge Herbicidal Activity CASOB ([8]; 250 g ai/ha): 100 | Pre-emerge phytotoxicity rating, crop damage CORN ([9]; 63 g ai/ha): 0 | Pre-emerge phytotoxicity rating, crop damage CORN ([9]; 250 g ai/ha): 15 | Pre-emerge phytotoxicity rating, crop damage RICE ([10]; 63 g ai/ha): 0 | Pre-emerge phytotoxicity rating, crop damage RICE ([10]; 250 g ai/ha): 30 | Pre-emerge herbicidal activity, phytotoxicity rating AMARE ([11]; 63 g ai/ha): 60 | Pre-emerge herbicidal activity, phytotoxicity rating AMARE ([11]; 250 g ai/ha): 100 | Post-emerge Herbicidal Activity CORN ([12]; 63 g ai/ha): 5 | Post-emerge Herbicidal Activity CORN ([12]; 250 g ai/ha): 5 | Post-emerge Herbicidal Activity RICE ([13]; 63 g ai/ha): 30 | Post-emerge Herbicidal Activity RICE ([13]; 250 g ai/ha): 50 | Pre-emerge herbicidal activity, phytotoxicity rating DIGSA ([14]; 63 g ai/ha): 0 | Pre-emerge herbicidal activity, phytotoxicity rating DIGSA ([14]; 250 g ai/ha): 90 | Pre-emerge herbicidal activity, phytotoxicity rating CHEAL ([15]; 63 g ai/ha): 100 | Pre-emerge herbicidal activity, phytotoxicity rating CHEAL ([15]; 250 g ai/ha): 100 | Pre-emerge herbicidal activity, phytotoxicity rating ABUTH ([16]; 63 g ai/ha): 90 | Pre-emerge herbicidal activity, phytotoxicity rating ABUTH ([16]; 250 g ai/ha): 100 | Pre-emerge herbicidal activity, phytotoxicity rating ECHCG ([17]; 63 g ai/ha): 0 | Pre-emerge herbicidal activity, phytotoxicity rating ECHCG ([17]; 250 g ai/ha): 30 | Pre-emerge herbicidal activity, phytotoxicity rating SETVI ([18]; 63 g ai/ha): 30 | Pre-emerge herbicidal activity, phytotoxicity rating SETVI ([18]; 250 g ai/ha): 90 | Pre-emerge herbicidal activity, phytotoxicity rating IPOHE ([19]; 63 g ai/ha): 10 | Pre-emerge herbicidal activity, phytotoxicity rating IPOHE ([19]; 250 g ai/ha): 90 | Pre-emerge herbicidal activity, phytotoxicity rating CASOB ([20]; 63 g ai/ha): 0 | Pre-emerge herbicidal activity, phytotoxicity rating CASOB ([20]; 250 g ai/ha): 50 | Pre-emerge herbicidal activity, phytotoxicity rating SORHA ([21]; 63 g ai/ha): 10 | Pre-emerge herbicidal activity, phytotoxicity rating SORHA ([21]; 250 g ai/ha): 40
